Usually pIC50 stands for −log10 of the IC50, conventionally taken in molar units.

pIC50: −log10 of the molar value.

Consider 25 molecules from patent US8618300B2, “Indolizine inhibitors of leukotriene production” (Boehringer Ingelheim International GmbH, priority 2008, dated 2013).

This experiment addresses T1, recombinant human FLAP protein (Homo sapiens, UniProt P20292).
T1 construct: made in house; host or cells: Sf9 insect cells (100,000 x g membrane pellet)
T1 sequence (P20292 1-161): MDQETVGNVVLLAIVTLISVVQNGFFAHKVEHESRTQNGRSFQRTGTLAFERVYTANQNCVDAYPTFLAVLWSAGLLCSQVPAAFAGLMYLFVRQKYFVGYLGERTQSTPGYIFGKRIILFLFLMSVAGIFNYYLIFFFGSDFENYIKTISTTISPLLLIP
The experiment can be described thus: FLAP binding assay, Scintillation Proximity Assay, displacement of [125I]L-691,831. The conditions noted are these: read-out: hFLAP binding IC50. How it is done: Compounds are assessed for the ability to bind to FLAP in a binding assay that measures compound-specific displacement of an iodinated (^1251) FLAP inhibitor via a Scintillation Proximity Assay format (adapted from S. Charleson et al., Mol. Pharmacol., 1992, 41, 873-879).
Cell pellets produced from sf9 insect cells expressing recombinant human FLAP protein are resuspended in buffer A [15 mM Tris-HCl (pH 7.5), 2 mM MgCl2, 0.3 mM EDTA, 1 mM PMSF]. The cells are lysed with a Dounce homogenizer and the material is centrifuged at 10,000×g for 10 minutes. The supernatant is then collected and centrifuged at 100,000×g for 60 minutes. To prepare membrane protein for an assay, an aliquot of the 100,000×g pellet is resuspended in 1 ml of buffer A, Dounce homogenized, and finally subjected to polytron mixing (30 seconds). Membrane protein (25 μl, 5 μg) is mixed with WGA SPA beads (Amersham) and stirred for 1 h. To an assay plate (Perkin Elmer FlexiPlate) is added 25 μl of test compound prepared in Binding buffer [100 mM Tris (pH 7.5), 140 mM NaCl, 5% glycerol, 2 mM EDTA, 0.5 mM TCEP, 0.05% Tween 20], 25 μl of [^125I]L-691,831 (an iodinated analog of MK-591, Charleson et al. Mol. Pharmacol., 41, 873-879, 1992) and finally 50 μl of the bead/protein mixture. (final concentrations: beads, 200 μg/well; protein, 5 μg/well; [^125I] probe, 0 08 nM/well (17 nCi/well). The plates are shaken for 2 h before reading on a Microbeta plate reader. Non-specific binding is determined by the addition of 10 μM cold L-691,831 compound.
In general terms: Scintillation proximity formats need no separation of bound from free tracer.

As to `COc1ccc(C(=O)c2c(CC(C(=O)O)C(C)C)c(C(=O)C(C)(C)C)c3cc(OCc4nc(C)cs4)ccn23)cc1` (stereo not shown) [2-({1-(2,2-dimethylpropanoyl)-3-[(4-methoxyphenyl)carbonyl]-7-[(4-methyl-1,3-thiazol-2-yl)methoxy]indolizin-2-yl}methyl)-3-methylbutanoic acid], the pIC50 is 8.40.
As to `CC(C)(C)C(=O)c1c(CC(C)(C)C(=O)O)c(C(=O)c2ccc(Cl)cc2)c2ccc(OCc3nc4ccccc4s3)cn12` [3-[6-(1,3-benzothiazol-2-ylmethoxy)-1-[(4-chlorophenyl)carbonyl]-3-(2,2-dimethylpropanoyl)indolizin-2-yl]-2,2-dimethylpropanoic acid], the pIC50 is 8.05.
Regarding `Cc1ccc(C(=O)c2c(CC(C)(C)C(=O)O)c(C(=O)C(C)(C)C)c3cc(OCc4cccc(C)n4)ccn23)cc1` [3-{1-(2,2-dimethylpropanoyl)-3-[(4-methylphenyl)carbonyl]-7-[(6-methylpyridin-2-yl)methoxy]indolizin-2-yl}-2,2-dimethylpropanoic acid], the pIC50 was 8.52.
Under `Cc1nc(COc2ccn3c(C(=O)c4ccccc4)c(CC(C)(C)C(=O)O)c(C(=O)C(C)(C)C)c3c2)cs1` [3-[1-(2,2-dimethylpropanoyl)-7-[(2-methyl-1,3-thiazol-4-yl)methoxy]-3-(phenylcarbonyl)indolizin-2-yl]-2,2-dimethylpropanoic acid] stands 7.00; under `Cc1nc(COc2ccc3c(C(=O)c4ccc(Cl)cc4)c(CC(C)(C)C(=O)NS(C)(=O)=O)c(C(=O)C(C)(C)C)n3c2)cs1` [3-{1-[(4-chlorophenyl)carbonyl]-3-(2,2-dimethylpropanoyl)-6-[(2-methyl-1,3-thiazol-4-yl)methoxy]indolizin-2-yl}-2,2-dimethyl-N-(methylsulfonyl)propanamide], 8.40; under `Cc1cccc(COc2ccn3c(C(=O)c4ccc(Cl)c(Cl)c4)c(CC(C)(C)C(=O)O)c(C(=O)C(C)(C)C)c3c2)n1` [3-{3-[(3,4-dichlorophenyl)carbonyl]-1-(2,2-dimethylpropanoyl)-7-[(6-methylpyridin-2-yl)methoxy]indolizin-2-yl}-2,2-dimethylpropanoic acid], 9.00.
Turning to `COc1nc(COc2ccn3c(C(=O)c4ccc(Cl)cc4)c(CC(C)(C)C(=O)O)c(C(=O)C(C)(C)C)c3c2)cs1` [3-{3-[(4-chlorophenyl)carbonyl]-1-(2,2-dimethylpropanoyl)-7-[(2-methoxy-1,3-thiazol-4-yl)methoxy]indolizin-2-yl}-2,2-dimethylpropanoic acid], the pIC50 is 7.16.
For `COc1cncc(-c2ccc(C(=O)c3c(CC(C)(C)C(=O)O)c(C(=O)C(C)(C)C)c4cc(OCc5ccccn5)ccn34)cc2)c1` [3-[1-(2,2-dimethylpropanoyl)-3-{[4-(5-methoxypyridin-3-yl)phenyl]carbonyl}-7-(pyridin-2-ylmethoxy)indolizin-2-yl]-2,2-dimethylpropanoic acid], the pIC50 was 7.66.
For the molecule `CC(C)c1ccn2c(C(=O)c3ccc(-c4cccnc4)cc3)c(CC(C)(C)C(=O)O)c(C(=O)C(C)(C)C)c2c1` [3-[1-(2,2-dimethylpropanoyl)-7-(propan-2-yl)-3-{[4-(pyridin-3-yl)phenyl]carbonyl}indolizin-2-yl]-2,2-dimethylpropanoic acid], the pIC50 is 6.78.
On to `COc1ccncc1-c1ccc(C(=O)c2c(CC(C)(C)C(=O)O)c(C(=O)C(C)(C)C)c3cc(OCc4ccccn4)ccn23)cc1` [3-[1-(2,2-dimethylpropanoyl)-3-{[4-(4-methoxypyridin-3-yl)phenyl]carbonyl}-7-(pyridin-2-ylmethoxy)indolizin-2-yl]-2,2-dimethylpropanoic acid], for which the negative-log IC50 (pIC50) is 7.17.
With `CCC(C)(Cc1c(C(=O)C(C)(C)C)c2cc(OCc3cccc(C)n3)ccn2c1C(=O)c1ccc(OC)cc1)C(=O)O` (stereo not shown) [2-({1-(2,2-dimethylpropanoyl)-3-[(4-methoxyphenyl)carbonyl]-7-[(6-methylpyridin-2-yl)methoxy]indolizin-2-yl}methyl)-2-methylbutanoic acid], the pIC50 is 8.70.
Regarding `COc1ccc(C(=O)c2c(CC(C(=O)O)C(C)C)c(C(=O)C(C)(C)C)c3cc(OCc4csc(C)n4)ccn23)cc1` (stereo not shown) [2-({1-(2,2-dimethylpropanoyl)-3-[(4-methoxyphenyl)carbonyl]-7-[(2-methyl-1,3-thiazol-4-yl)methoxy]indolizin-2-yl}methyl)-3-methylbutanoic acid], the pIC50 was 7.89.
For the molecule `CCCC(Cc1c(C(=O)C(C)(C)C)c2cc(OCc3nc(C)cs3)ccn2c1C(=O)c1ccc(Cl)c(Cl)c1)C(=O)O` (stereo not shown) [2-({3-[(3,4-dichlorophenyl)carbonyl]-1-(2,2-dimethylpropanoyl)-7-[(4-methyl-1,3-thiazol-2-yl)methoxy]indolizin-2-yl}methyl)pentanoic acid], the negative logarithm of the IC50 (pIC50) was 7.82.
As to `COc1ccc(C(=O)c2c(CC(C)(C)C(=O)O)c(C(=O)C(C)(C)C)c3cc(OCc4nc5ccccc5s4)ccn23)cc1`, the pIC50 was 9.00.
Under `COc1ccc(C(=O)c2c(CC(C(=O)O)C(C)C)c(C(=O)C(C)(C)C)c3cc(OCc4ccc5ccccc5n4)ccn23)cc1` (stereo not shown) [2-{[1-(2,2-dimethylpropanoyl)-3-[(4-methoxyphenyl)carbonyl]-7-(quinolin-2-ylmethoxy)indolizin-2-yl]methyl}-3-methylbutanoic acid] stands 9.00.
For the molecule `CC(C)(C)C(=O)c1c(CC(C)(C)C(=O)O)c(C(=O)c2ccc(Cl)cc2)n2ccc(OCc3nc4ccccc4s3)cc12`, the negative logarithm of the IC50 (pIC50) is 8.40.
The figure for `Cc1nc(COc2ccc3c(C(=O)c4ccc(Cl)cc4)c(CC(C)(C)C(=O)O)c(C(=O)C(C)(C)C)n3c2)cs1` [3-{1-[(4-chlorophenyl)carbonyl]-3-(2,2-dimethylpropanoyl)-6-[(2-methyl-1,3-thiazol-4-yl)methoxy]indolizin-2-yl}-2,2-dimethylpropanoic acid] is 7.42.
The figure for `CC(C)(C)C(=O)c1c(CC(C)(C)C(=O)O)c(C(=O)c2ccc(Cl)cc2)n2ccc(OCc3cscn3)cc12` [3-{3-[(4-chlorophenyl)carbonyl]-1-(2,2-dimethylpropanoyl)-7-(1,3-thiazol-4-ylmethoxy)indolizin-2-yl}-2,2-dimethylpropanoic acid] is 6.93; for `COc1ccc(C(=O)c2c(CC(C(=O)O)C(C)C)c(C(=O)C(C)(C)C)c3cc(OCc4cccc(C)n4)ccn23)cc1` (stereo not shown) [2-({1-(2,2-dimethylpropanoyl)-3-[(4-methoxyphenyl)carbonyl]-7-[(6-methylpyridin-2-yl)methoxy]indolizin-2-yl}methyl)-3-methylbutanoic acid] it is 8.52.
The figure for `Cc1csc(COc2ccn3c(C(=O)c4ccc(Cl)c(C)c4)c(CC(C)(C)C(=O)O)c(C(=O)C(C)(C)C)c3c2)n1` [3-{3-[(4-chloro-3-methylphenyl)carbonyl]-1-(2,2-dimethylpropanoyl)-7-[(4-methyl-1,3-thiazol-2-yl)methoxy]indolizin-2-yl}-2,2-dimethylpropanoic acid] is 9.00.
On to `CCCC(Cc1c(C(=O)C(C)(C)C)c2cc(OCc3cccc(C)n3)ccn2c1C(=O)c1ccc(OC)cc1)C(=O)O` (stereo not shown) [2-({1-(2,2-dimethylpropanoyl)-3-[(4-methoxyphenyl)carbonyl]-7-[(6-methylpyridin-2-yl)methoxy]indolizin-2-yl}methyl)pentanoic acid], for which the pIC50 was 8.52.
Turning to `CC(C)(C)CC(=O)c1c(CC(C)(C)C(=O)O)c(C(=O)c2ccc(Cl)cc2)n2ccc(OCc3ccc4ccccc4n3)cc12` [3-{3-[(4-chlorophenyl)carbonyl]-1-(3,3-dimethylbutanoyl)-7-(quinolin-2-ylmethoxy)indolizin-2-yl}-2,2-dimethylpropanoic acid], the pIC50 is 7.07.
Under `CC(C)(C)C(=O)c1c(CC(C)(C)C(=O)O)c(C(=O)c2ccc(Cl)cc2)c2ccc(OCc3ccc4ccccc4n3)cn12` stands 7.85; under `CC(C)(C)C(=O)c1c(CC(C)(C)C(=O)O)c(C(=O)c2ccc(Cl)cc2)n2ccc(OCc3ncccn3)cc12` [3-{3-[(4-chlorophenyl)carbonyl]-1-(2,2-dimethylpropanoyl)-7-(pyrimidin-2-ylmethoxy)indolizin-2-yl}-2,2-dimethylpropanoic acid], 7.19; under `Cc1nc(COc2ccn3c(C(=O)c4ccc(Cl)cc4)c(CC(C)(C)C(=O)O)c(C(=O)C(C)(C)C)c3c2)cs1` [3-{3-[(4-chlorophenyl)carbonyl]-1-(2,2-dimethylpropanoyl)-7-[(2-methyl-1,3-thiazol-4-yl)methoxy]indolizin-2-yl}-2,2-dimethylpropanoic acid], 7.74.
